44 molecules from the C3SDB collision cross section collection can be followed below.

The conditions of series [1]: instrument: DT, single field, calibrated with Agilent tune mix (Agilent).
The conditions of series [2]: instrument: DT, single field, calibrated with ESI Low Concentration Tuning Mix (Agilent).
The conditions of series [3]: [M+H]+; instrument: TW; calibrated with polyalanine and drug standards.

Values joined by “and” are separate entries in the source; they are usually repeats but may differ in a detail not shown here. Identical values can stand only once.

As for `CCCCCCC(N)C(=O)O` (racemic) [DL-2-Aminooctanoic acid], the “collision cross section (N2)” value in series [1] ([M+H]+) was determined as 147.1 Å²; in series [1] ([M-H]-), 141.62 Å².
As to `O=C(O)C(O)Cc1ccccc1` (racemic) [DL-3-Phenyllactic acid], the “collision cross section (N2)” value in series [1] ([M+H]+) is given as 137.8 Å²; in series [1] ([M-H]-), 134.74 Å².
For `N[C@@H](CCSSCC[C@H](N)C(=O)O)C(=O)O` (racemic) [DL-Homocystine], the “collision cross section (N2)” value in series [1] ([M+H]+) turned out to be 157.9 Å²; in series [1] ([M+Na-2H]-) it was 152.2 Å².
As for `COc1cc(C(O)C(=O)O)ccc1O` (racemic) [DL-Vanillylmandelic acid], the “collision cross section (N2)” value was 133.3 Å² in series [1] ([M+H-H2O]+) and 140.9 Å² in series [1] ([M-H]-).
For `Cn1c(=O)c2[nH]c(=O)[nH]c2n(C)c1=O` [1,3-Dimethyluric acid], the results for the “collision cross section (N2)” value in series [1] ([M+H]+) and in series [1] ([M-H]-) were 142.5 Å² and 134.24 Å², respectively.
For `Cn1cnc2c(ncn2[C@@H]2O[C@H](CO)[C@@H](O)[C@H]2O)c1=N` [1-Methyladenosine] the same measures were 164.2 Å² and 159.21 Å².
Consider `Cn1c(=O)[nH]c2nc[nH]c2c1=O` [1-Methylxanthine], for which the “collision cross section (N2)” value in series [1] ([M-H]-) came out at 124.23 Å².
As for `CCCCCCCCCCCCCCCCCC(=O)OC[C@@H](O)CO` [1-Stearoyl-sn-glycerol], the “collision cross section (N2)” value in series [1] ([M+H-H2O]+) was 199.6 Å².
As for `CN1CC(=O)N=C1N` [CREATININE], the “collision cross section (N2)” value was 123.2 Å² in series [2] ([M+H]+), 132.8 Å² in series [2] ([M+Na]+), 118.5 Å² in series [2] ([M-H]-) and 120.2 Å² in series [3].
Consider `N[C@H]1C(O)O[C@H](CO)[C@@H](O)[C@@H]1O` (some centres undefined) [GLUCOSAMINE], for which the “collision cross section (N2)” value was 138.1 Å² and 141.4 Å² in series [2] ([M+H]+); 143.5 Å² and 146.5 Å² in series [2] ([M+Na]+); 145.2 Å² in series [3].
In the case of `Nc1ccccc1C(=O)CC(N)C(=O)O` (centres undefined) [KYNURENINE], the “collision cross section (N2)” value in series [2] ([M+H]+) is 149.3 Å² and 149.6 Å²; in series [2] ([M+Na]+) it was 152.8 Å² and 153.1 Å²; in series [3], 146 Å².
Take `O=C(O)C1CCCCN1` (centres undefined) [PIPECOLATE]: the “collision cross section (N2)” value in series [2] ([M+H]+) is 127.7 Å² and 128 Å²; in series [2] ([M+Na]+), 138.8 Å² and 139.4 Å²; in series [2] ([M-H]-), 128.3 Å² and 128.9 Å².
For the molecule `c1ncc2[nH]cnc2n1` [PURINE], the “collision cross section (N2)” value in series [2] ([M+H]+) was found to be 121.9 Å²; in series [2] ([M-H]-), 114.3 Å².
As for `Cc1ncc(CO)c(C=O)c1O` [PYRIDOXAL], the “collision cross section (N2)” value in series [2] ([M+H]+) was 131.4 Å²; in series [2] ([M+Na]+), 142.8 Å²; in series [2] ([M-H]-) it was 129 Å².
In the case of `Cc1ncc(CO)c(CO)c1O` [PYRIDOXINE], the “collision cross section (N2)” value in series [2] ([M+H]+) is 134.4 Å²; in series [2] ([M-H]-), 132.4 Å²; in series [3], 132.3 Å².
Consider `O=C(O)c1ccc[nH]1` [PYRROLE-2-CARBOXYLATE], for which the “collision cross section (N2)” value in series [2] ([M-H]-) turned out to be 113.8 Å².
Take `O=C(O)c1cccnc1C(=O)O` [QUINOLINATE]: the figures for the “collision cross section (N2)” value in series [2] ([M+H]+) and in series [2] ([M-H]-) were 132.3 Å² and 126.6 Å², respectively.
With `OC[C@H]1O[C@H](OC[C@H]2O[C@H](O[C@]3(CO)O[C@H](CO)[C@@H](O)[C@@H]3O)[C@H](O)[C@@H](O)[C@@H]2O)[C@H](O)[C@@H](O)[C@H]1O` [RAFFINOSE], the “collision cross section (N2)” value in series [2] ([M+Na]+) was 208.9 Å²; in series [2] ([M-H]-), 197.3 Å².
As for `C[C@@H]1OC(O)[C@H](O)[C@H](O)[C@H]1O` (some centres undefined) [RHAMNOSE], the “collision cross section (N2)” value in series [2] ([M+Na]+) was found to be 142.6 Å².
As to `Cc1cc2nc3c(=O)[nH]c(=O)nc-3n(C[C@H](O)[C@H](O)[C@H](O)CO)c2cc1C` [RIBOFLAVIN], the “collision cross section (N2)” value in series [2] ([M+H]+) worked out at 188.5 Å²; in series [2] ([M-H]-), 186.1 Å²; in series [3], 184.9 Å².
In the case of `OC1OC[C@@H](O)[C@@H](O)[C@H]1O` (some centres undefined) [RIBOSE], in series [2] ([M+Na]+), the “collision cross section (N2)” value was 135.2 Å².
On to `O=C(/C=C/c1ccc(O)c(O)c1)O[C@@H](Cc1ccc(O)c(O)c1)C(=O)O` [ROSMARINATE], for which, in series [2] ([M-H]-), the “collision cross section (N2)” value turned out to be 172.7 Å².
For the molecule `NC(=O)c1ccccc1O` [SALICYLAMIDE], the entries for the “collision cross section (N2)” value in series [2] ([M+H]+), in series [2] ([M-H]-) and in series [3] were 124.4 Å², 121.1 Å² and 122.2 Å², respectively.
`C[C@@H]1NCCc2cc(O)c(O)cc21` [SALSOLINOL]: the “collision cross section (N2)” value in series [2] ([M+H]+) is listed as 142.7 Å²; in series [2] ([M-H]-), 139.4 Å².
Turning to `NCC[Se][Se]CCN` [SELENOCYSTAMINE], the entries for the “collision cross section (N2)” value in series [2] ([M+H]+) and in series [2] ([M+Na]+) were 135.6 Å² and 138.6 Å², respectively.
Turning to `OC[C@@H](O)[C@@H](O)[C@H](O)[C@@H](O)CO` [SORBITOL], the “collision cross section (N2)” value in series [2] ([M+Na]+) was 142.9 Å²; in series [2] ([M-H]-) it was 131.4 Å².
As to `OCC1(O)OC[C@H](O)[C@@H](O)[C@@H]1O` (some centres undefined) [SORBOSE], in series [2] ([M+Na]+), the “collision cross section (N2)” value was 139.4 Å² and 143.3 Å².
For the molecule `NCCCCNCCCN` [SPERMIDINE], the “collision cross section (N2)” value in series [2] ([M+H]+) was 131.4 Å² and 131.6 Å²; in series [2] ([M+Na]+), 136.1 Å² and 136.5 Å².
Consider `OC[C@H]1O[C@H](OC[C@H]2O[C@H](OC[C@H]3O[C@H](O[C@]4(CO)O[C@H](CO)[C@@H](O)[C@@H]4O)[C@H](O)[C@@H](O)[C@@H]3O)[C@H](O)[C@@H](O)[C@H]2O)[C@H](O)[C@@H](O)[C@H]1O` [STACHYOSE], for which the “collision cross section (N2)” value is recorded as 235.1 Å² in series [2] ([M+Na]+) and 224.1 Å² in series [2] ([M-H]-).
On to `NCCS(=O)(=O)O` [TAURINE], for which the “collision cross section (N2)” value in series [2] ([M+H]+) is 128.2 Å² and 134.2 Å²; in series [2] ([M-H]-) it was 118.4 Å².
In the case of `CSc1ncnc2nc[nH]c12` [THIOPURINE S-METHYLETHER], the entries for the “collision cross section (N2)” value in series [2] ([M+H]+), in series [2] ([M+Na]+) and in series [2] ([M-H]-) were 129.8 Å², 145.1 Å² and 127.7 Å², respectively.
With `Cc1cn([C@H]2C[C@H](O)[C@@H](CO)O2)c(=O)[nH]c1=O` [THYMIDINE], the “collision cross section (N2)” value in series [2] ([M+Na]+) was 161.6 Å²; in series [2] ([M-H]-) it was 154.1 Å².
Regarding `Cc1c[nH]c(=O)[nH]c1=O` [THYMINE], the “collision cross section (N2)” value was 122.1 Å² in series [2] ([M+H]+) and 119 Å² in series [2] ([M-H]-).
For `NC(=O)[C@@H]1CCCN1C(=O)[C@H](Cc1cnc[nH]1)NC(=O)[C@@H]1CCC(=O)N1` [THYROTROPIN RELEASING HORMONE], the “collision cross section (N2)” value is 179.2 Å² in series [2] ([M+H]+), 183.2 Å² in series [2] ([M+Na-2H]-), 182.4 Å² in series [2] ([M+Na]+) and 184.5 Å² in series [2] ([M-H]-).
For the molecule `OC[C@H]1O[C@H](O[C@H]2O[C@H](CO)[C@@H](O)[C@H](O)[C@H]2O)[C@H](O)[C@@H](O)[C@@H]1O` [TREHALOSE], the “collision cross section (N2)” value in series [2] ([M+K]+) is listed as 179.7 Å²; in series [2] ([M+Na]+) it was 175.7 Å²; in series [2] ([M-H]-), 169.9 Å².
On to `CCCCCCCCCCCCCCCCCCCCCCC(=O)[O-]` [TRICOSANOATE], for which the figures for the “collision cross section (N2)” value in series [2] ([M+Na]+) and in series [2] ([M-H]-) were 204.8 Å² and 196.9 Å², respectively.
In the case of `N[C@@H](Cc1c[nH]c2ccccc12)C(=O)O` [TRYPTOPHAN], the “collision cross section (N2)” value was 150.1 Å² and 150.3 Å² in series [2] ([M+H]+); 147.6 Å² and 147.7 Å² in series [2] ([M+Na]+); 142.3 Å² and 142.5 Å² and 151.5 Å² in series [2] ([M-H]-).
Turning to `NC(=O)NCCC(=O)O` [UREIDOPROPIONATE], in series [2] ([M+Na]+), the “collision cross section (N2)” value is reported as 132.4 Å².
Turning to `CC(=O)NC1C(OP(=O)(O)OP(=O)(O)OCC2OC(n3ccc(=O)[nH]c3=O)C(O)C2O)OC(CO)C(O)C1O` (centres undefined) [URIDINE DIPHOSPHATE-N-ACETYLGALACTOSAMINE], the “collision cross section (N2)” value in series [2] ([M+H]+) is given as 216.2 Å²; in series [2] ([M+Na-2H]-), 228.2 Å²; in series [2] ([M+Na]+) it was 218.1 Å²; in series [2] ([M-H]-), 223.9 Å².
`CC(=O)N[C@H]1[C@H](OP(=O)(O)OP(=O)(O)OC[C@H]2O[C@@H](n3ccc(=O)[nH]c3=O)[C@H](O)[C@@H]2O)O[C@H](CO)[C@@H](O)[C@@H]1O` [URIDINE DIPHOSPHATE-N-ACETYLGLUCOSAMINE]: the “collision cross section (N2)” value in series [2] ([M+H]+) was determined as 210.5 Å²; in series [2] ([M+Na-2H]-) it was 227.9 Å²; in series [2] ([M+Na]+), 218.1 Å²; in series [2] ([M-H]-), 224 Å².
In the case of `O=c1ccn([C@@H]2O[C@H](COP(=O)(O)O)[C@@H](O)[C@H]2O)c(=O)[nH]1` [URIDINE MONOPHOSPHATE], the “collision cross section (N2)” value is reported as 165.7 Å² in series [2] ([M+H]+), 163.6 Å² in series [2] ([M+Na-2H]-), 172.3 Å² in series [2] ([M+Na]+) and 161.2 Å² in series [2] ([M-H]-).
As to `O=C(O)/C=C/c1cnc[nH]1` [UROCANATE], the “collision cross section (N2)” value in series [2] ([M+H]+) is given as 134.6 Å²; in series [2] ([M-H]-) it was 120.9 Å².
Turning to `CC(C)[C@H](N)C(=O)O` [VALINE], the “collision cross section (N2)” value in series [2] ([M+H]+) is reported as 120.9 Å²; in series [2] ([M+Na]+), 133.4 Å²; in series [2] ([M-H]-), 124.3 Å².
For the molecule `O=c1[nH]c(=O)c2ncn([C@@H]3O[C@H](CO)[C@@H](O)[C@H]3O)c2[nH]1` [XANTHOSINE], the “collision cross section (N2)” value in series [2] ([M+H]+) turned out to be 162 Å²; in series [2] ([M+K]+), 173 Å²; in series [2] ([M+Na-2H]-) it was 161.9 Å²; in series [2] ([M+Na]+), 173.3 Å²; in series [2] ([M-H]-), 158.3 Å².
